Assay [1] concerns TNF production in whole blood. In words: Inhibition of TNF production in LPS-stimulated whole blood ("WB"). The class given is cell-based. The following applies: Homo sapiens, 4 ng/ml LPS, overnight, ELISA TNF-α. The procedure:
(§1) C. Inhibition of IL-1, TNF, IL-6 and IL-8 Production in LPS-Stimulated PBMCs
(§2) Inhibitors were serially diluted in DMSO from a 20 mM stock. At least 6 serial dilutions were prepared. Then 4× inhibitor stocks were prepared by adding 4 μl of an inhibitor dilution to 1 ml of RPMI1640 medium/10% fetal bovine serum. The 4× inhibitor stocks contained inhibitor at concentrations of 80 μM, 32 μM, 12.8 μM, 5.12 μM, 2.048 μM, 0.819 μM, 0.328 μM, 0.131 μM, 0.052 μM, 0.021 μM etc. The 4× inhibitor stocks were pre-warmed at 37° C. until use.
(§3) Alternatively, whole blood containing an anti-coagulant was used directly in the assay.
(§4) 100 μl of cell suspension or whole blood were placed in each well of a 96-well cell culture plate. Then 50 μl of the 4× inhibitor stock was added to the cells. Finally, 50 μl of a lipopolysaccharide (LPS) working stock solution (16 ng/ml in cell culture medium) was added to give a final concentration of 4 ng/ml LPS in the assay. […]
(§5) The next day the cells were mixed on a shaker for 3-5 minutes before centrifugation at 500×g for 5 minutes. Cell culture supernatants were harvested and analyzed by ELISA for levels of IL-1β (R & D Systems, Quantikine kits, #DBL50), TNF-α (BioSource, #KHC3012), IL-6 (Endogen, #EH2-IL6) and IL-8 (Endogen, #EH2-IL8) according to the instructions of the manufacturer. […]

Assay [2] relates to IL-1 production in whole blood. In words: Inhibition of IL-1 production in LPS-stimulated whole blood ("WB"). The assay is classed as cell-based. Conditions: Homo sapiens, 4 ng/ml LPS, overnight, ELISA IL-1β. The procedure: as §1, §2, §3, §4, §5
(In general: An ELISA detects its analyte on a solid surface through an enzyme-linked reagent.)

In assay [3] the test system is IL-6 production in whole blood. In words: Inhibition of IL-6 production in LPS-stimulated whole blood ("WB"). The assay is classed as cell-based. Conditions: Homo sapiens, 4 ng/ml LPS, overnight, ELISA IL-6. Here is the method:
as §1, §2, §3, §4, §5

Assay [4] has as its system IL-1 production in LPS-stimulated PBMCs. In words: Inhibition of IL-1 production in LPS-stimulated PBMCs ("cell"). The assay is classed as cell-based. The following applies: Homo sapiens, PBMC, 4 ng/ml LPS, overnight, ELISA IL-1β. The procedure: as §1, §2
(§6) Fresh human blood buffy cells were separated from other cells in a Vacutainer CPT from Becton & Dickinson (containing 4 ml blood and enough DPBS without Mg^2+/Ca^2+ to fill the tube) by centrifugation at 1500×g for 15 min. […] The total cell number was determined using a Neubauer Cell Chamber and the cells were adjusted to a concentration of 4.8×10^6 cells/ml in cell culture medium (RPMI1640 supplemented with 10% fetal bovine serum). […]
as §5

A further assay deals with activated p38 (Homo sapiens, UniProt Q16539). The experiment in a line: Kinase assay: inhibition of phosphorylation of EGF receptor peptide. Conditions: activated p38 5 nM, EGF receptor peptide 200 μM, ATP 100 μM, 30° C, HPLC. The assay is classed as biochemical. The procedure:
A. Inhibition of Phosphorylation of EGF Receptor Peptide
This assay was carried out in the presence of 10 mM MgCl2, 25 mM β-glycerophosphate, 10% glycerol and 100 mM HEPES buffer at pH 7.6. For a typical IC50 determination, a stock solution was prepared containing all of the above components and activated p38 (5 nM). The stock solution was aliquotted into vials. A fixed volume of DMSO or inhibitor in DMSO (final concentration of DMSO in reaction was 5%) was introduced to each vial, mixed and incubated for 15 minutes at room temperature. EGF receptor peptide, […] (SEQ ID NO: 3), a phosphoryl acceptor in p38-catalyzed kinase reaction (1), was added to each vial to a final concentration of 200 μM. The kinase reaction was initiated with ATP (100 μM) and the vials were incubated at 30° C. After 30 minutes, the reactions were quenched with equal volume of 10% trifluoroacetic acid (TFA).
The phosphorylated peptide was quantified by HPLC analysis. Separation of phosphorylated peptide from the unphosphorylated peptide was achieved on a reverse phase column (Deltapak, 5 μm, C18 100D, Part no. 011795) with a binary gradient of water and acteonitrile, each containing 0.1% TFA. IC50 (concentration of inhibitor yielding 50% inhibition) was determined by plotting the percent (%) activity remaining against inhibitor concentration.

Assay [5] deals with TNF production in LPS-stimulated PBMCs. The experiment in a line: Inhibition of TNF production in LPS-stimulated PBMCs ("cell"). The class given is cell-based. The following applies: Homo sapiens, PBMC, 4 ng/ml LPS, overnight, ELISA TNF-α. Here is the method:
as §1, §2, §6, §5

Chain of activated p38 (Q16539 whole entry): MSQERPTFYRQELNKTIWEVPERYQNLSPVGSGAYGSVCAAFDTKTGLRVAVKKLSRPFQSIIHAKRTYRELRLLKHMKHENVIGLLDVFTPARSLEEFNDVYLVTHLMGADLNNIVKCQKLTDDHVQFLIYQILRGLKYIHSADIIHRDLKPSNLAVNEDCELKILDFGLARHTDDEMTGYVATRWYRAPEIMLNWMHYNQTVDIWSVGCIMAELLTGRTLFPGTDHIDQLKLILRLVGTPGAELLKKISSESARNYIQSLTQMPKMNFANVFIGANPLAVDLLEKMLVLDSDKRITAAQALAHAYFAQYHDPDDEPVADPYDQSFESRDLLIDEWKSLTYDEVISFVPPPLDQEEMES

The IC50 is the midpoint of a concentration-inhibition curve. Higher therefore signals weaker potency in that assay. On to `CN(C)/C=N/C(=O)OCc1ccc(N(C(N)=O)c2c(F)cccc2F)nc1-c1ccc(F)cc1F` [Compound 9], for which the IC50 in assay [1] is 20 µM; in assay [2], 12.2 µM; in assay [3] it was 11 µM; in assay [4], 0.05 µM; against activated p38, 1 µM; in assay [5], 0.05 µM.

As to `CN(C)/C=N/C(=O)OCc1ccc(N(C(=O)/N=C/N(C)C)c2c(F)cccc2F)nc1-c1ccc(F)cc1F` [Compound 10], the IC50 in assay [1] is 4.3 µM; in assay [2], 2.2 µM; in assay [3], 0.8 µM; against activated p38 it was 5 µM.

The record behind these values is patent US7919513B2, “Inhibitors of p38” (Vertex Pharmaceuticals Incorporated, priority 2000, dated 2011).
